Source: patent US20230219939A1, “N-(1-CYANO-PYRROLIDIN-3-YL)-5-(3-(TRIFLUOROMETHYL)PHENYL)OXAZOLE-2-CARBOXAMIDE DERIVATIVES AND THE CORRESPONDING OXADIAZOLE DERIVATIVES AS USP30 INHIBITORS FOR THE TREATMENT OF MITOCHONDRIAL DYSFUNCTION” (MISSION THERAPEUTICS LIMITED, priority 2020, published 2023)

Legend:
PK mouse 2 mg/kg iv = assay type: in vivo; settings: plasma, read-out: Cl plasma
Source text: Cl in vivo clearance: Pharmacokinetic measurement of the volume of plasma (or any matrix) from which a substance is completely removed per unit time.

mouse hepatocytes = assay: Hepatocyte Cl mouse; assay type: in vitro ADME
Procedure: Hep Cl mouse: in vitro hepatocyte clearance in mouse cells.
(§1) Clu: in vitro clearance. Clu as defined here is the scaled clearance, in turn calculated from the intrinsic clearance. The intrinsic clearance is the predicted clearance due to hepatic metabolic reactions, determined from incubation of a compound in a hepatocyte preparation.

UUO injured kidneys = assay: Unilateral ureteral obstructive kidney disease model (UUO); assay type: in vivo, C57BL/6 mice; settings: 10 days
Source text: UUO causes renal injury characterised by tubular cell injury, interstitial inflammation and fibrosis. It serves as a model of irreversible post-renal acute kidney injury (AKI). Experimental UUO has illustrated the molecular mechanisms of apoptosis, inflammation and fibrosis, all of which are key processes in renal injury, regardless of the primary insult. Consequently, the UUO model provides investigators information beyond obstruction (Chevalier et al, 2009, Kidney Int 75(11): 1145-1152). Example 1 was assessed in the UUO model to determine the ability of the compound to attenuate progressive tubulointerstitial fibrosis and chronic kidney disease (CKD). On day 1 of the study, adult C57BL/6 mice were dosed by oral gavage according to one of the following dosing regimens; Vehicle or 15 mg/kg Example 1 (p.o.) BID. Two hours post dosing on day 1 study mice underwent surgery to ligate the left ureter at two points. Successful UUO surgery was later confirmed by observation of dilation of renal pelvis due to hydronephrosis. The animals were dosed according to their prescribed regimen for 10 days at which point kidneys were harvested, or histopathology assessment and for protein/RNA assessment. Picrosirius Red staining was performed to assess the extent of collagen deposition and IHC was employed to assess relative α-Smooth Muscle Actin (α-SMA) expression.

[1] = system: USP2, USP6, USP10, USP16, USP21, USP22, USP25, USP28; assay: DUB selectivity panel IC50; assay type: biochemical
Log D = assay type: physicochemical; settings: pH 7.4; read-out: Log D measured at pH 7.4
Source text: log D: distribution co-efficient; lipophilicity measurement.

Mouse plasma stability = assay type: in vitro ADME
Cathepsins B, K, L, S, V = assay: Cathepsin panel IC50 (summary over B, K, L, S, V); assay type: biochemical
UCHL1 = target: T1, UCHL1 (Homo sapiens, UniProt P09936); assay: UCHL1 DUB IC50; assay type: biochemical
T1 sequence (P09936 1-223): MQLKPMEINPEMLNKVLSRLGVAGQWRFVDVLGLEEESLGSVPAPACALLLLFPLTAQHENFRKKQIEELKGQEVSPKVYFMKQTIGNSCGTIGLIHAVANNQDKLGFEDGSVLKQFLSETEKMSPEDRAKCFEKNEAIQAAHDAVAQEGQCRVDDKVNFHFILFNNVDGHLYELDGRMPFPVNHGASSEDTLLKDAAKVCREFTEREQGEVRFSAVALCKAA

[2] = Brain microdialysis PK 30 mg/kg PO mouse; assay type: in vivo
Source text: Kpuu is the ratio of unbound drug in brain to unbound drug in plasma and may be indicative of potential for treating peripheral and/or CNS indications.

hepatocytes = assay: Hepatocyte Cl human; assay type: in vitro ADME
Procedure: Hep Cl human: in vitro hepatocyte clearance in human cells.
as §1

Cathepsin V = Cathepsin V (Homo sapiens, UniProt O60911); assay: Cathepsin V IC50; assay type: biochemical
Sequence of Cathepsin V (O60911 114-334, species assumed): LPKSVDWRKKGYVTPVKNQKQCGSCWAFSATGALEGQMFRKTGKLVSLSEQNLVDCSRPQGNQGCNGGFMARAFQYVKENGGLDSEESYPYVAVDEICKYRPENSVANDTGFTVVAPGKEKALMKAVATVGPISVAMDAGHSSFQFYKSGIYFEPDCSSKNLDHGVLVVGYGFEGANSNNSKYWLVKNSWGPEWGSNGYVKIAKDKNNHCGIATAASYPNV

[3] = WT-MDCK (wild-type) in vitro flux; assay type: in vitro ADME; settings: dog
Source text: WT-MDCK (wild-type) in vitro flux.

In the case of `COC[C@@H]1C[C@@H](NC(=O)c2ncc(-c3cccc(C(F)(F)F)c3)o2)CN1C#N` [Example 1, N-((3R,5S)-1-Cyano-5-(methoxymethyl)-pyrrolidin-3-yl)-5-(3-(trifluoromethyl)phenyl)oxazole-2-carboxamide], the clearance (PK mouse 2 mg/kg iv) is reported as 19 mL/min/kg, the “Hepatocyte Cl mouse Scaled Clu” value (mouse hepatocytes) is reported as 81 mL/min/kg and the “hepatocyte metabolic stability compared to Reference Examples A and B (in words)” value (mouse hepatocytes) is reported as “significantly improved hepatocyte metabolic stability”. The “α-SMA levels in UUO injured kidneys (IHC)” value (UUO injured kidneys; 15 mg/kg oral BID, vs vehicle treated controls) was “statistical reduction in α-SMA levels”, the “collagen deposition (picrosirius red staining) in ligated kidneys” value (UUO injured kidneys; 15 mg/kg p.o. BID, vs vehicle) was “statistically reduced collagen deposition” and the “DUB selectivity preference for USP30 v 8 DUBs” value [1] was over 1777. For the same compound, the IC50 ([1]; range over the eight DUBs, read-out: DUB IC50 (μM) USP2, USP6, USP10, USP16, USP21, USP22, USP25, USP28) was 16 to 97.9 µM, the logD (Log D) was 2.6 and the “plasma stability compared to Reference Example B (in words)” value (Mouse plasma stability) was “significantly improved plasma stability”. The half-life (Mouse plasma stability; mouse plasma, read-out: Stability Mouse plasma t1/2) was 359 min, the “Selectivity preference for USP30 v cathepsins” value (Cathepsins B, K, L, S, V) was over 1133 and the IC50 (Cathepsins B, K, L, S, V; range over the five cathepsins, read-out: Cathepsin IC50 (μM) B, K, L, S, V) was 10.2 to 138 µM. The IC50 (UCHL1) was over 300 µM, the Kp uu ([2]; Brain microdialysis PK 30 mg/kg PO - mouse) was 1.2 and the “pre-frontal cortex Cmax, u/cell TOM20-Ub” value ([2]; Brain microdialysis PK 30 mg/kg PO mouse) was 23-fold. For the same compound, the “Hepatocyte Cl human Scaled Clu” value (hepatocytes) was 10.3 mL/min/kg, the IC50 (Cathepsin V) was 105 µM and the efflux ratio [3] was 0.8. It also gave a Papp A→B ([3]; A-B) of 11.8 ×10⁻⁶ cm/s.
